Measured values reported in BindingDB's records for doi:10.1016/j.bmcl.2003.11.084 (Liaoning Normal University, 2004).

Key:
[1] = Inhibitory activity against the wheat germ DNA topoisomerase I
[2] = Inhibitory activity against the calf thymus DNA topoisomerase I
[3] = Inhibitory activity against the wheat germ DNA topoisomerase I; remark: listed apart in the source

| IC50 [1] [µM] | IC50 [2] [µM] | IC50 [3] [µM] | Structure (SMILES) |
| --- | --- | --- | --- |
| 400 | – | – | c1coc(-c2ccnc(-c3cccs3)c2)c1 [4-Furan-2-yl-2-thiophen-2-yl-pyridine] |
| – | 200 | < 10 | C(=C\c1ccco1)/c1cc(-c2ccco2)cc(-c2cccs2)n1 [4-Furan-2-yl-2-((E)-2-furan-2-yl-vinyl)-6-thiophen-2-yl-pyridine] |
| 50 | – | – | c1coc(-c2cc(-c3cccs3)nc(-c3cccs3)c2)c1 [4-Furan-2-yl-2,6-di-thiophen-2-yl-pyridine] |
